For five compounds, IC50 and remaining activity results are on record in patent publication US8703961B2, “Thiazole derivatives for the treatment of diseases such as cancer” (Merck Patent GmbH, priority 2009, dated 2014).

The structures appear in SMILES notation. pIC50: −log10 of the molar value.

Test in all cases: filter binding kinase assay
Holding throughout (type): biochemical

The target of one experiment is T1, BRSK1 (Homo sapiens, UniProt Q8TDC3).
T1 construct: purchased
T1 sequence (Q8TDC3 1-778): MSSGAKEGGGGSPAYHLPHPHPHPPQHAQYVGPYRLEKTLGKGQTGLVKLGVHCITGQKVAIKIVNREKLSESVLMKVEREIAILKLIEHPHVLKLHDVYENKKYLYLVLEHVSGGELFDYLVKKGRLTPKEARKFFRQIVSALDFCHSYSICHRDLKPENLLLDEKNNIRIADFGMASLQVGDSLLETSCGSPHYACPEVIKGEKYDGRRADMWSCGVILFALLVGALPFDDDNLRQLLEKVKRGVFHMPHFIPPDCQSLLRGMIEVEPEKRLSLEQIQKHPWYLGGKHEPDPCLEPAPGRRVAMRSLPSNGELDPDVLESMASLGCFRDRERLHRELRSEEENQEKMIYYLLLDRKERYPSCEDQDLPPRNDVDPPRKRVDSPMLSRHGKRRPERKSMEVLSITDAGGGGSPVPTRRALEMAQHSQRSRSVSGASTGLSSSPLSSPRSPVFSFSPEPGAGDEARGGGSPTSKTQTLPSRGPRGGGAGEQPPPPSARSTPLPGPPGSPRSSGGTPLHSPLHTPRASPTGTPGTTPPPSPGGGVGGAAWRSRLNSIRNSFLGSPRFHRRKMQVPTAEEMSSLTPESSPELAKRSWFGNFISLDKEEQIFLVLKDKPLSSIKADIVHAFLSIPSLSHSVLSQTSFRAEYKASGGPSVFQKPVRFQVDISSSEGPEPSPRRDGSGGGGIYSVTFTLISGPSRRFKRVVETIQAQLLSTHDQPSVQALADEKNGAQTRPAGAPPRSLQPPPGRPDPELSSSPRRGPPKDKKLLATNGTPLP
Particulars: derived from % inhibition at 1 μM. In short, it runs like this: (§1)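 Kinase activity is measured at room temperature by filter binding, with incorporated radiolabel counted after acid termination. A 5-minute preincubation of compound, enzyme and substrate precedes addition of ATP from a kinase-dependent stock (5, 20 or 50 […]).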

A further experiment deals with T2, CSNK2A1 (CK2) (Homo sapiens, UniProt P68400).
T2 construct: purchased
Particulars: for pIC50: derived from % inhibition at 1 μM. In short, it runs like this: as §1

Another experiment has as its target T3, MAP4K2 (GCK) (Homo sapiens, UniProt Q12851).
T3 construct: purchased
T3 sequence (Q12851 1-820): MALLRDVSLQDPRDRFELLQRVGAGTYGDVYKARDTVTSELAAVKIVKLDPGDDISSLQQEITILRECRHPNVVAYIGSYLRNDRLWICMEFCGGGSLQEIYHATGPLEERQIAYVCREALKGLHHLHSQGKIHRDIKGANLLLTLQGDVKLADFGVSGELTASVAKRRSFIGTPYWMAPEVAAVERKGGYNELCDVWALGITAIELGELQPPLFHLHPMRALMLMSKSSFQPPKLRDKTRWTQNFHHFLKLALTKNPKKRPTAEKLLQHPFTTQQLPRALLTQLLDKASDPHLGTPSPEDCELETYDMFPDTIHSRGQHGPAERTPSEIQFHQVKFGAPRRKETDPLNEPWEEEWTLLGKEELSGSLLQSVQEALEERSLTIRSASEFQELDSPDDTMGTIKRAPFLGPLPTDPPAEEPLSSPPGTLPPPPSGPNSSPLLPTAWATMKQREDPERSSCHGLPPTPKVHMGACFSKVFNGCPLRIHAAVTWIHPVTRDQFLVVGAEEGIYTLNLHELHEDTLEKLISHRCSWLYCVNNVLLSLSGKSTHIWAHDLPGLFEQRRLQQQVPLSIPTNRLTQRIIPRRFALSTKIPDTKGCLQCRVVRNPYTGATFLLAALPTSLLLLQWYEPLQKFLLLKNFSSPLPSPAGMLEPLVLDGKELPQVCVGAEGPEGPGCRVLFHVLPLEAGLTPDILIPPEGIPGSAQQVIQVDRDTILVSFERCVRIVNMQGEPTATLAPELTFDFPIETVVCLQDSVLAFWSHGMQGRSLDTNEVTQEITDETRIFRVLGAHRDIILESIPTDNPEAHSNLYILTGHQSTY
As to conditions: for pIC50: derived from % inhibition at 1 μM. In short, it runs like this: as §1

The next experiment has as its target T4, MAPK11 (Homo sapiens, UniProt Q15759).
T4 construct: purchased
As to conditions: derived from % inhibition at 1 μM. In outline: as §1

The next experiment concerns the target T5, MAPK13 (Homo sapiens, UniProt O15264).
T5 construct: purchased
T5 sequence (O15264 1-365): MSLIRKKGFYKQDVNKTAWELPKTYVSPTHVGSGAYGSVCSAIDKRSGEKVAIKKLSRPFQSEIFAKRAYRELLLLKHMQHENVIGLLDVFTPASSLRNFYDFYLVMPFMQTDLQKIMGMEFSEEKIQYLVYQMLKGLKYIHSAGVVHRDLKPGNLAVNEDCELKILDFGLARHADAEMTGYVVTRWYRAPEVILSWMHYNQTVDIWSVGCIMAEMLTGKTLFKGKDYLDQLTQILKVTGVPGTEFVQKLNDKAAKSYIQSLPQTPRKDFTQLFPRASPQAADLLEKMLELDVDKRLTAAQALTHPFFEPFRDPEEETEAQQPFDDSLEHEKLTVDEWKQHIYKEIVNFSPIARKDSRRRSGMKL
Particulars: derived from % inhibition at 1 μM. In outline: as §1

The target in a further experiment is T6, RPS6KA3 (Homo sapiens, UniProt P51812).
T6 construct: purchased
As to conditions: derived from % inhibition at 1 μM. In short, it runs like this:
as §1

In a further experiment the target is T7, RPS6KB1 (Homo sapiens, UniProt P23443).
T7 construct: purchased
As to conditions: derived from % inhibition at 1 μM. In short, it runs like this: as §1

T2 sequence (P68400 whole entry, species assumed): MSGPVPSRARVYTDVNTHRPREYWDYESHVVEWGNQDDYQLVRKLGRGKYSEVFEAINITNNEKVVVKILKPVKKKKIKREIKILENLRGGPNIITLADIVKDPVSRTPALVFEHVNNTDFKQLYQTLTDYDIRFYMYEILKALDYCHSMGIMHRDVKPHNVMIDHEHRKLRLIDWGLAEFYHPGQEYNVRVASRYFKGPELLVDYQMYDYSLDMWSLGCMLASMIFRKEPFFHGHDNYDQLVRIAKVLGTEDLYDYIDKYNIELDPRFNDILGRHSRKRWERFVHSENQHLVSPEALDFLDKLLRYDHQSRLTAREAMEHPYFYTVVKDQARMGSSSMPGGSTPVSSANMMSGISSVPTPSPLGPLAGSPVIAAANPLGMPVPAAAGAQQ
T7 sequence (P23443 whole entry, species assumed): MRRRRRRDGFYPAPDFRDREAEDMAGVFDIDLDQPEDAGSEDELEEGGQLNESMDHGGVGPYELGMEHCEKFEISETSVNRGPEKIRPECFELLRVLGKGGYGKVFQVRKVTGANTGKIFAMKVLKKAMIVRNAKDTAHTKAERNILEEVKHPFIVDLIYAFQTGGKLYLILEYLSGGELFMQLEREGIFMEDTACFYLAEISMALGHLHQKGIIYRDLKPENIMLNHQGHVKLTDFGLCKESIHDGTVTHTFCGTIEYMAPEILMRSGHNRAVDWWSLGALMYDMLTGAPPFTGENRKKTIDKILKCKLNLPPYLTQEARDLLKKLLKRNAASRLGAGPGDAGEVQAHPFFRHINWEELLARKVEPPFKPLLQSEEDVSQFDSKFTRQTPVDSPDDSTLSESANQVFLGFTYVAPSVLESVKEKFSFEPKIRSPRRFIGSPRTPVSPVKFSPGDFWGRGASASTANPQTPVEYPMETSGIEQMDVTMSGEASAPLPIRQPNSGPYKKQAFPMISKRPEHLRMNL
T6 sequence (P51812 whole entry, species assumed): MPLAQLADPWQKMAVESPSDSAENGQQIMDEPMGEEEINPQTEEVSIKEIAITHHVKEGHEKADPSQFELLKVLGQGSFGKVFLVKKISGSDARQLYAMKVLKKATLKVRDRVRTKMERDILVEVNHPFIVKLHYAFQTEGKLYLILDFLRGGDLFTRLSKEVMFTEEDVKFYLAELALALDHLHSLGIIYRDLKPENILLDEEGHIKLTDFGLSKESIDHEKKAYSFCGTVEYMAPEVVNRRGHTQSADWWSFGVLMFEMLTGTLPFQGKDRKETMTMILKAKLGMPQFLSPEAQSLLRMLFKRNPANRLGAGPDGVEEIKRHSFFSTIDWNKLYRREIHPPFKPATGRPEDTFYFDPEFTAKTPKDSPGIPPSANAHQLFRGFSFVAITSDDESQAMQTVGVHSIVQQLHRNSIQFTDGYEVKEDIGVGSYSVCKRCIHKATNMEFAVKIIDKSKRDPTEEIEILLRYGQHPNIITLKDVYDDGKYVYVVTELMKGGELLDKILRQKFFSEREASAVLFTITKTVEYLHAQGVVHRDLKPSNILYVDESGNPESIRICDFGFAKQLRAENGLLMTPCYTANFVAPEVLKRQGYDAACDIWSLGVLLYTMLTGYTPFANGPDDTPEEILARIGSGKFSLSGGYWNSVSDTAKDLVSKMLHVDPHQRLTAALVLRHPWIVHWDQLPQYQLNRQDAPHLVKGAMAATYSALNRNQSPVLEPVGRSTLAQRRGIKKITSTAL
T4 sequence (Q15759 whole entry, species assumed): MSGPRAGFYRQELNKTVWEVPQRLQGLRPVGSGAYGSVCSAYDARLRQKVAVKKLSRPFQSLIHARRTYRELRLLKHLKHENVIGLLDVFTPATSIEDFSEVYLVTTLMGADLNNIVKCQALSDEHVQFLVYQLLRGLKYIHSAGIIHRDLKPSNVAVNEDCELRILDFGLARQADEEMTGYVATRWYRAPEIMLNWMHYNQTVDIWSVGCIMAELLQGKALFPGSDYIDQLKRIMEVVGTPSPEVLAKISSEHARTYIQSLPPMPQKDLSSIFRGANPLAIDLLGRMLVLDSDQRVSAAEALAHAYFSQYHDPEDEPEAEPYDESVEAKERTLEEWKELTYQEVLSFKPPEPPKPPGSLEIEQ

On to `Nc1ncsc1C#Cc1cccc(O)c1` [Compound A27, 3-(4-aminothiazol-5-ylethynyl)phenol], for which the pIC50 on BRSK1 is 5.00 to 6.00; at CSNK2A1 (CK2) it was less than 6.00; at MAP4K2 (GCK) it was 5.00 to 6.00; on MAPK11, 5.00 to 6.00; at MAPK13 it was 5.00 to 6.00; on RPS6KA3, 5.00 to 6.00. For the same compound, the pIC50 at RPS6KB1 was 5.00 to 6.00.

For `CC(C)(C)OC(=O)Nc1ncsc1C#CCN1C(=O)c2ccccc2C1=O` [Compound A26, tert-butyl{5-[3-(1,3-dioxo-1,3-dihydroisoindol-2-yl)prop-1-ynyl]-thiazol-4-yl}carbamate], the pIC50 on BRSK1 was less than 6.00; on CSNK2A1 (CK2), 4.00 to 5.00; at MAP4K2 (GCK), 5.00 to 6.00; at MAPK11 it was less than 6.00; on MAPK13, 4.00 to 5.00; on RPS6KA3, less than 6.00. The compound further showed a pIC50 at RPS6KB1 of less than 6.00.

Take `CC(C)(C)OC(=O)Nc1nc(-c2ccncc2)sc1C#CCN1CCOCC1` [Compound A25, tert-butyl[5-(3-morpholin-4-ylprop-1-ynyl)-2-pyridin-4-ylthiazol-4-yl]-carbamate]: the pIC50 at BRSK1, at CSNK2A1 (CK2), at MAP4K2 (GCK), at MAPK11, at MAPK13 and at RPS6KA3 was less than 6.00 throughout. On RPS6KB1, this compound gave a pIC50 of less than 6.00.

For the compound `c1ccc(Cc2c[nH]c3ncsc23)cc1` [Compound A7, 6-benzyl-4H-pyrrolo[2,3-d]thiazole], the negative logarithm of the IC50 (pIC50) at BRSK1, at MAP4K2 (GCK), at MAPK11, on MAPK13, on RPS6KA3 and on RPS6KB1 was 5.00 to 6.00 in each case. The remaining activity at 1 µM at CSNK2A1 (CK2) (read-out: residual kinase activity CK2) worked out at 53%.

On to `Nc1ncsc1C#Cc1cnc2[nH]ccc2c1` [Compound A22, 5-(1H-pyrrolo[2,3-b]pyridin-5-ylethynyl)thiazol-4-ylamine], for which the pIC50 at BRSK1 is 5.00 to 6.00; on CSNK2A1 (CK2), less than 6.00; at MAP4K2 (GCK) it was 6.00 to 8.00; at MAPK11 it was less than 6.00; on MAPK13, 4.00 to 5.00; on RPS6KA3, 4.00 to 5.00. For the same compound, the pIC50 on RPS6KB1 is 5.00 to 6.00. The remaining activity at 1 µM on MAP4K2 (GCK) (read-out: residual kinase activity GCK) turned out to be 31%.

Usually pIC50 stands for −log10 of the IC50, conventionally taken in molar units.
